System: metastatic breast cancer with overexpression of the ErbB2 (HER2) oncogene
Assay: Randomized clinical study of chemotherapy with or without HERCEPTIN in patients
Format: in vivo, human
Method: Beginning on day 7, patients received weekly administration of 2 mg/kg antibody (i.v.) over a 90-minute period.
The patients received one of two chemotherapy regiments for a minimum of six cycles, provided their disease was not progressing: a) cyclophosphamide and doxorubicin or epirubicin (AC), if patients have not received anthracycline therapy in the adjuvant setting, or b) paclitaxel (T, TAXOL®), if patients have received any anthracycline therapy in the adjuvant setting. […] Subsequent doses of the antibody were given immediately before chemotherapy administration, if the initial dose of the antibody was well tolerated. If the first dose of the antibody was not well tolerated, subsequent infusions continued to precede chemotherapy administration by 24 hours. Patients were permitted to continue receiving chemotherapy beyond six cycles if, in the opinion of the treating physician, they were continuing to receive treatment benefit.
Cyclophosphamide (600 mg/m^2) was given either by iv push over a minimum period of 3 minutes or by infusion over a maximum period of 2 hours. […]
Time to disease progression (TTP) was calculated from the beginning of therapy to progression. Confidence limits for response rates were calculated using the exact method for a single proportion.

For `CC(=O)O[C@H]1C(=O)[C@@]2(C)[C@H]([C@H](OC(=O)c3ccccc3)[C@]3(O)C[C@H](OC(=O)[C@H](O)[C@@H](NC(=O)c4ccccc4)c4ccccc4)C(C)=C1C3(C)C)[C@]1(OC(C)=O)CO[C@@H]1C[C@@H]2O` [T, paclitaxel], the “syndrome of myocardial dysfunction similar to that observed with anthracyclines” value (Grade ¾) was 0% and the “AE(%), overall severe adverse events” value (median follow-up 10.5 months) was 59%.
